Data set [1] is described as follows: Permeability in human Caco-2 cells. The conditions noted are these: read-out: permeability. It is filed as ADME, cell-based.
Data set [2] in a line: n-Octanol/water partition coefficient, logP of the compound. Format: physicochemical.
Data set [3] in a line: Aqueous solubility, logS of the compound. Format: physicochemical. The conditions noted are these: buffer.

SMILES strings stand for the structures.

With `Cn1c(N/N=C/c2cccc(Cl)c2Cl)nc2ccccc2c1=O`, in data set [1], the Papp was 0.57 ×10⁻⁶ cm/s.

As to `O=[N+]([O-])c1ccc(-n2cc(COc3ccc(/C=N/Nc4nnc(-c5ccccc5)c(-c5ccccc5)n4)cc3)nn2)cc1`, the Papp in data set [1] was 0.53 ×10⁻⁶ cm/s.

For the compound `C(=N\Nc1nnc(-c2cccs2)c(-c2cccs2)n1)/c1cc2ccccc2[nH]1`, the Papp in data set [1] came to 0.53 ×10⁻⁶ cm/s.

Regarding `N=C(Nc1cnc(F)c(F)c1)Nc1cnc(F)c(F)c1`, the logP in data set [2] stood at 1.76. In data set [3], the logS0 is listed as -2.73.
